Experimental data taken from US20250230226A1, “PLXDC1/PLXDC2 ACTIVATORS AND THEIR USE IN THE TREATMENT OF BLOOD VESSEL DISORDERS” (THE REGENTS OF THE UNIVERSITY OF CALIFORNIA, priority 2019, published 2025).

System: LL/2 lung cancer tumor endothelial cells
Assay: Lung LL2 ex vivo model of tumor angiogenesis
Type: cell-based, mouse
Details: for 48 hrs (morphology observations): LL/2 tumor endothelial cells; for Cell death: drug treatment for two days, ratio of red area to total endothelial cell area
Description: An ex vivo tumor angiogenesis model was developed to test the efficacy of anti-cancer candidate agents. The following protocol describes the Ex Vivo Tumor Angiogenesis Model.
• 1. The day before the experiment, all necessary tools were sprayed with 70% ethanol and sterilized under UV light overnight, including blade, dissecting and micro-dissecting scissors and […]. 24-well dishes were placed at 4° C. to pre-chill plates and Matrigel was thawed, 24 hours before tumor dissection. • 2. 70% ethanol was sprayed on working bench. Two sterile petri dishes were prepared with 10 ml sterile PBS. The following steps 3 and 4 are necessary for mouse tumor models. For fresh human tumor, steps 3 and 4 are skipped. • 3. The tumor-bearing mice were euthanized. 70% ethanol was sprayed on the mouse and the tumor was removed using sterilized dissecting tools (avoid the fur). The tumor was rinsed in petri dish with sterile PBS to remove ethanol and fur. The tumor was transferred to a new petri dish with PBS for dissection. The dish is placed on ice. • 4. Pre-chilled sterile pipet tips were used to seed regular Matrigel in 24 well plates on ice. Matrigel (30 μl) was dropped in the middle of each well without touching the edge of the well (avoid introducing bubbles if possible). • 5. The tumor was cut in halves using the sterile blade. Healthy tumor tissue that is not necrotic and is within the tumor capsule was identified and isolated. The healthy tumor tissue was cut into small pieces. For instance, a suitable size for the tumor tissue is 0.5 mm (H)×0.5 mm (L)×0.3 mm (D) with a total volume of 0.075 mm^3. • 6. Each tumor piece was gently transferred and embedded in the Matrigel drop in the 24-well plate. The embedded piece was placed in the bottom and middle of each Matrigel drop. The plate was kept on ice all the time. • 7. After seeding the tumor pieces, plates were incubated in a 37° C. cell culture incubator without medium for 10 minutes in order for the Matrigel to solidify. • 8. Endothelial Growth Medium (0.5 ml) was added to each well and incubated at 37° C. with 5% CO2. Treatment was not added until the new endothelial cells was grown out of the tumor or were larger than 3 mm in diameter. This usually takes 4 days for the LL2 Lewis lung cancer model and 7 days for the CT26 colon cancer model. For human tumor models, the growth time is typically 2-3 weeks, depending on the tumor type. Media was changed every 4 days during prolonged culture. Typically, when the tumor tissue grows to 2 mm in diameter, it was good for drug testing. A size of about 3 mm in diameter can make visualization easier. • 9. When the assay was ready to be analyzed for cell death (e.g., 48 hours after drug addition), the dye mixture was prepared by mixing 6 μl of green dye to stain live cells (5 mg/ml Fluorescein diacetate or FDA in DMSO) with 30 μl of red dye (2.5 mg/ml Propidium iodide or PI in PBS) to stain dead cells in an Eppendorf tube. The FDA dye needs to be stored frozen in a −20° C. freezer because it has a labile ester bond. • 10. 1 μl of the dye mixture was added to each well of the 24-well dish. It is usually preferred to do one 24-well dish at a time given the amount of time needed to take pictures (the green dye is not as stable in the cells in the long term). • 11. The dish was gently rocked a few times to mix the dye with the media in the wells and incubate the dish at 37° C. for 10 min (too long incubation can make the green signal too intense). • 12. Each well was washed with 0.5 ml of sterile PBS and then 0.5 ml of phenol red free SFM was added to each well. Alternatively 0.5 ml of regular Endothelial Cell Growth Media can be added to each well if this well needs to be continuously maintained after the experiment. • 13. An inverted microscope using the 2× objective lens was used to observe morphological changes in the experimental wells. • 14. […]

[1] = Mus musculus, Endothelial cell, 48 h, read-out: Cell death

Compound	48 hrs (morphology observations) (40 μm)	Cell death (40 μm)	further results
CNC(=O)c1ccc2ncc(S(=O)(=O)c3ccc(OC)cc3)c(NC)c2c1 [Compound 360]	0	–	cytotoxicity at 40 µM [1]: 20%
CCCCOc1ccc(S(=O)(=O)c2cnc3ccc([S+](C)[O-])cc3c2N2CCC(N3CCN(c4ccc(F)cc4)CC3)CC2)cc1 (centres unmarked) [Compound 239]	0	40%	–
CCOC(=O)c1ccc2ncc(S(=O)(=O)c3ccc(CC)cc3)c(-n3nnc4ccccc43)c2c1 [Compound 133]	–	–	Cell death (20 μm): 10%
CCCCOc1ccc(S(=O)(=O)c2cnc3ccc([S+](C)[O-])cc3c2N2CCC(N3CCN(CCO)CC3)CC2)cc1 (centres unmarked) [Compound 236]	0	5%	–
CCN(CC)CCCN1CCN(c2c(S(=O)(=O)c3ccc(OC)cc3)cnc3cc(OC)c(OC)cc23)CC1 [Compound 302]	0	70%	–
CCCCCCCCCCCCCCOc1ccc(S(=O)(=O)c2cnc3ccc([S+](C)[O-])cc3c2N2CCC(N3CCC(N4CCN(C)CC4)CC3)CC2)cc1F (centres unmarked) [Compound 371]	–	–	48 hrs (morphology observations) (20 μm): *** (more than 50% but less than 100% of endothelial cells vesicularize in cell shape); Cell death (20 μm): 30%
CCCCOc1ccc(S(=O)(=O)c2cnc3ccc([S+](C)[O-])cc3c2N2CCC(N3CCC(O)CC3)CC2)cc1 (centres unmarked) [Compound 168]	–	–	48 hrs (morphology observations) (20 μm): 0; Cell death (20 μm): 10%
CCCCOc1ccc(S(=O)(=O)c2cnc3ccc(C(=O)OCC)cc3c2N2CCC(N3CCCCCC3)CC2)cc1 [Compound 176]	*** (more than 50% but less than 100% of endothelial cells vesicularize in cell shape)	100%	–
CCCCOc1ccc(S(=O)(=O)c2cnc3ccc(S(C)(=O)=O)cc3c2N2CCC(N3CCC(O)CC3)CC2)cc1 [Compound 170]	–	–	48 hrs (morphology observations) (20 μm): 0; Cell death (20 μm): 10%
CCCCCCCOc1ccc(S(=O)(=O)c2cnc3ccc(SC)cc3c2N2CCCN(CCN3CCCCC3)CC2)cc1 [Compound 248]	–	–	48 hrs (morphology observations) (20 μm): * (50% or less of cells vesicularize in cell shape); Cell death (20 μm): 60%
CCCCOc1ccc(S(=O)(=O)c2cnc3ccc(SC)cc3c2N2CCCN(CCO)CC2)cc1 [Compound 351]	*** (more than 50% but less than 100% of endothelial cells vesicularize in cell shape)	–	cytotoxicity at 40 µM [1]: 100%
CCOC(=O)c1ccc2ncc(S(=O)(=O)c3ccc(OC)cc3)c(N3CCC(N4CCN(C)CC4)CC3)c2c1 [Compound 171]	0	40%	–
COc1ccc(S(=O)(=O)c2cnc3ccc(C(=O)N(C)C)cc3c2N2CCC(N3CCCCC3)CC2)cc1 [Compound 331]	0	10%	–
COc1ccc(S(=O)(=O)c2cnc3cc(OC)c(OC)cc3c2N2CCCN(C3CCS(=O)(=O)CC3)CC2)cc1 [Compound 330]	*** (more than 50% but less than 100% of endothelial cells vesicularize in cell shape)	50%	–
CCCCCCCOc1ccc(S(=O)(=O)c2cnc3ccc(SC)cc3c2N2CCN(CCN3CCCCC3)CC2)cc1 [Compound 281]	–	–	Cell death (20 μm): 50%
CCCCCCCCCCCCCCOc1ccc(S(=O)(=O)c2cnc3ccc([S+](C)[O-])cc3c2N2CCC(N3CCC(N4CCC(O)CC4)CC3)CC2)cc1 (centres unmarked) [Compound 375]	–	–	48 hrs (morphology observations) (20 μm): * (50% or less of cells vesicularize in cell shape); Cell death (20 μm): 50%
CCCCOc1ccc(S(=O)(=O)c2cnc3ccc(SC)cc3c2N2CCCN(S(=O)(=O)NCC(F)(F)F)CC2)cc1 [Compound 353]	0	–	cytotoxicity at 40 µM [1]: 0%
CCCCCCCCCCOc1ccc(S(=O)(=O)c2cnc3ccc([S+](C)[O-])cc3c2N2CCC(N3CCN(C)CC3)CC2)cc1 (centres unmarked) [Compound 264]	–	–	48 hrs (morphology observations) (10 μm): * (50% or less of cells vesicularize in cell shape); Cell death (10 μm): 20%

Compound	48 hrs (morphology observations) (40 μm)	Cell death (40 μm)	further results
CCCCCCCCCCCCOc1ccc(S(=O)(=O)c2cnc3ccc([S+](C)[O-])cc3c2N2CCC(N3CCN(CCO)CC3)CC2)cc1F (centres unmarked) [Compound 362]	–	–	48 hrs (morphology observations) (20 μm): *** (more than 50% but less than 100% of endothelial cells vesicularize in cell shape); Cell death (20 μm): 20%
CCCCOc1ccc(S(=O)(=O)c2cnc3ccc(C(=O)OCC)cc3c2N2CC[S+]([O-])CC2)cc1 [Compound 195]	0	–	–
CCCCCCCCCCOc1ccc(S(=O)(=O)c2cnc3ccc([S+](C)[O-])cc3c2N2CCCN(CCN3CCCCC3)CC2)cc1 (centres unmarked) [Compound 266]	–	–	48 hrs (morphology observations) (10 μm): 0; Cell death (10 μm): 5%
CCOC(=O)c1ccc2ncc(S(=O)(=O)c3ccc(OC)cc3)c(-n3cnnn3)c2c1 [Compound 185]	–	–	48 hrs (morphology observations) (10 μm): * (50% or less of cells vesicularize in cell shape); Cell death (10 μm): 30%
CCCCOc1ccc(S(=O)(=O)c2cnc3ccc(C(=O)OCC)cc3c2N2CCC(N3CC[S+]([O-])CC3)CC2)cc1 [Compound 244]	0	–	cytotoxicity at 40 µM [1]: 20%
COc1ccc(S(=O)(=O)c2cnc3cc(OC)c(OC)cc3c2N2CCCN(C3COC3)CC2)cc1 [Compound 326]	0	30%	–
COc1ccc(S(=O)(=O)c2cnc3cc(OC)c(OC)cc3c2N2CCCN(C3CCSCC3)CC2)cc1 [Compound 329]	*** (more than 50% but less than 100% of endothelial cells vesicularize in cell shape)	40%	–
CCCCOc1ccc(S(=O)(=O)c2cnc3ccc(OC(F)(F)F)cc3c2N2CCS(=O)(=O)CC2)cc1 [Compound 198]	0	30%	–
CCN(CC)CCOc1ccc(S(=O)(=O)c2cnc3ccc(SC)cc3c2N2CCCN(C)CC2)cc1 [Compound 242]	0	30%	–
COc1ccc(S(=O)(=O)c2cnc3ccc(OC(F)(F)F)cc3c2NCCO)cc1OC [Compound 73]	–	10%	–
CCCCOc1ccc(S(=O)(=O)c2cnc3ccc(OC(F)(F)F)cc3c2N2CCSCC2)cc1 [Compound 187]	0	30%	–
CCCCCCCCCCCCCCCCOc1ccc(S(=O)(=O)c2cnc3ccc([S+](C)[O-])cc3c2N2CCC(N3CCN(CCO)CC3)CC2)cc1 (centres unmarked) [Compound 376]	–	–	48 hrs (morphology observations) (20 μm): 0; Cell death (20 μm): 10%
CCCCOc1ccc(S(=O)(=O)c2cnc3ccc(SC)cc3c2N2CCC(N3CCSCC3)CC2)cc1 [Compound 243]	0	20%	–
CCCCOc1ccc(S(=O)(=O)c2cnc3ccc(C(=O)NCCO)cc3c2N2CCCN(C)CC2)cc1 [Compound 200]	0	–	cytotoxicity at 40 µM [1]: 30%
CCCCCCCCCCOc1ccc(S(=O)(=O)c2cnc3ccc([S+](C)[O-])cc3c2N2CCC(N3CCC(N4CCN(C)CC4)CC3)CC2)cc1 (centres unmarked) [Compound 285]	–	–	48 hrs (morphology observations) (10 μm): *** (more than 50% but less than 100% of endothelial cells vesicularize in cell shape); Cell death (10 μm): 60%
O=S(=O)(c1ccc(OC(F)(F)F)cc1)c1cnc2ccc(OC(F)(F)F)cc2c1N1CCC(N2CCCCC2)CC1 [Compound 120]	–	–	48 hrs (morphology observations) (20 μm): 0; cytotoxicity at 20 µM [1]: 5%
CCOC(=O)c1ccc2ncc(S(=O)(=O)c3ccc(OC)cc3)c(NN3CCN(C)CC3)c2c1 [Compound 225]	0	40%	–
CCCCOc1ccc(S(=O)(=O)c2cnc3ccc([S+](C)[O-])cc3c2N2CCC(N3CCSCC3)CC2)cc1 (centres unmarked) [Compound 245]	0	40%	–
